The numbers were not newly measured in patent US11759449B2, “Methods for reducing oxidative effects of free radicals” (Hugg LLC, priority 2021, dated 2023), which cites them from elsewhere.

The conditions of series [1]: background, refs (2, 3).
For series [2] the following is noted: background, refs (2, 3). The source holds these as a separate data set.

Each structure is given as a SMILES string.

For the compound `Oc1ccc(C=Cc2cc(O)cc(O)c2)cc1` [resveratrol], the bioavailability result in series [1] is “poor”. The solubility result in series [2] is given as “poor”.
